Reference: US11117907B2, “Curcuminoid-inspired synthetic compounds as anti-tumor agents” (University of North Florida Board of Trustees, priority 2017, dated 2021)
pIC50: −log10 of the molar value. Like-named read-outs stand apart in the source and are kept apart here. Each block holds one molecule with its values, some of them ahead of it.

Assays:
[1] = system: NCI-60 human tumor cell lines; assay: NCI-60 one-dose screening (10^−5 M); assay type: cell-based
From the text: The CUR—BF2 adducts 5, 10, and 19, the (CF3)2—CUR 20 and the (CF3)2—CUR—BF2 adduct 21 of FIG. 2 were screened at the National Cancer Institute using NCI-60 cell one-dose protocol (10^−5 M).
(§1) Samples were submitted to the National Cancer Institute (NCI of NIH) Developmental Therapeutics anticancer screening program (DTP) for human tumor cell line assay by NCI-60 screening against leukemia, lung, colon, and CNS cancers, as well as melanoma, ovarian, renal, prostate, and breast cancers. Compounds are initially tested at a single dose of 10-5 molar. Data are reported as mean graph of percent growth (GP). Growth inhibition is shown by values between 0 and 100 and lethality by values less than zero. Compounds that meet selection criteria based on one-dose assay are then tested against 60 cell panel at five concentrations.
as §1, with “NCI-60 assay: Samples” for “Samples”, “10^−5” for “10-5”
as §1, with “NCI-60 assay: samples” for “Samples”, “10^−5” for “10-5”, “(GP). Selected data output are shown in SI file.” for “(GP).”, “represented” for “shown”, “zero.” for “zero. Compounds that meet selection criteria based on one-dose assay are then tested against 60 cell panel at five concentrations.”

[2] = system: MDA231; assay: In vitro cell viability bioassay, MTT, MDA231; assay type: cell-based, human; settings: for pIC50: Table 4, repeats Table 3, read-out: IC50 MDA231 (Breast cancer); for IC50: MTT assay, read-out: Breast Cancer IC50 (μM) MDA231
Protocol: (§2) To evaluate the cell growth inhibitory and apoptosis inducing effects of the fluorinated curcuminoids and their BF2 adducts, in-vitro bioassay tests were performed on […] different cancer cell lines namely: MOLT-4 (human leukemia suspension cancer cell line), PC3 and LNCap (human […] prostate cancer cell lines respectively), A549 (lung cancer), and MDA231 (breast cancer), and the results are sketched in Table 3.
(§3) The cell viability/anti-proliferative activity of the curcuminoids against PC3 (human androgen-insensitive prostate cancer cell line), LNCap (human-androgen sensitive prostate cancer cell line), A549 (lung cancer), and MDA231 (breast cancer) were determined by means of 3-(4,5-dimethyl-2-thiazolyl)-2,5-diphenyl-2H-tetrazolium bromide (MTT) assay (the tetrazolium salt was a commercial sample). (R. N. Khaybullin, et al., Molecules, 2014, 19, 18676-18689). The ability of the curcuminoids to affect proliferations of suspension cell lines (MOLT-4) was tested by the CellTiter-Glo® Luminescent Cell Viability Assay (purchased from Promega Madison, Wis., USA) to determine the number of viable cells in culture based on quantitation of the ATP present. The IC50 values were obtained from fitting data with GraphPad software to determine the growth inhibition in the presence of test compounds. (R. N. Khaybullin, et al., Molecules, 2014, 19, 18676-18689).

[3] = system: Various cancer cell lines; assay: Cancer cell line growth at 1×10^−5 M curcuminoid; assay type: cell-based; settings: all cancer cell lines
Protocol: Various cancer cell lines were seeded into 384-well culture plates at 2×10^3 cell/well and incubated at 5% CO2, 37° C. The culture media was replaced with 1×10^−5 M of curcuminoid; 1,7-bis(2,3,6-trimethoxyphenyl)hepta-1,4,6-triene-3,5-dione, 7-bis(3-benzothiophene)hepta-1,4,6-triene-3,5-dione, or D-793176. The cell line growth was measured.

[4] = system: PBMCs; assay: Apoptosis (annexin-V/PI flow cytometry), healthy donor PBMCs; assay type: cell-based, human
Protocol: (§4) Apoptotic cell death in multiple myeloma (MM) cancer cell lines (RPMI-8226, KMS-11, MM1.S) as well as peripheral blood mononuclear cells (PBMCs) from healthy donors that were exposed to various concentrations of (A) CUR-analog 1 (Indole-4 CUR—BF2) and (B) CUR-analog 2 (Indole-5 CUR) or (C) the FDA-approved Bcl-2 inhibitor (venetoclax, used for comparison) was assessed.
(§5) Cell lines and PBCMs (peripheral blood mononuclear cells from healthy donors as non-cancer CONTROL) were seeded in quadruplicate (technical replicates). CellTiter-Glo® 2.0 reagent equal to the volume of cell culture medium present in each well was added and the plate was left to incubate at room temperature for 10 minutes to stabilize the luminescent signal. Luminescent signal/intensity from the 384-well plate was read on a plate reader. Cells/cell lines used: BCWM.1 (Waldenstrom macroglobulinemia cell line, WM); RPMI-8266 (Multiple myeloma cell line, MM); RS4; 11 (Acute lymphoblastic leukemia, ALL). For Apoptosis study cells were treated with the indicated agents and concentrations (FIG. 74) for 24 h and stained with annexin-V and propidium iodide (PI), followed by flow cytometry analysis.

[5] = system: MM cell lines (MM1.S, KMS11, RPMI-8226); assay: Cell proliferation and viability in multiple myeloma cell lines (CellTiter Glo 2.0, 72 h); assay type: cell-based, human; settings: read-out: median IC50 concentration in MM cell lines
Protocol: Cell proliferation and viability were determined in multiple myeloma (MM) cancer cell lines (RPMI-8226, KMS-11, MM1.S) as well as in peripheral blood mononuclear cells (PBMCs) from healthy donors that were exposed to various concentrations of (A) CUR-analog 1 (3-BF2) and (B) CUR-analog 2 (CUR 2) for 72 hours using the CellTiter Glo 2.0 assay.
as §5

[6] = system: MM1.S; assay: Apoptosis (annexin-V/PI flow cytometry), MM1.S; assay type: cell-based, human
Protocol: as §4, §5

[7] = system: RPMI-8226; assay: Apoptosis (annexin-V/PI flow cytometry), RPMI-8226; assay type: cell-based, human; settings: 2.5 uM, 24 h
Protocol: as §4, §5

[8] = system: KMS-11; assay: Apoptosis (annexin-V/PI flow cytometry), KMS-11; assay type: cell-based, human
Protocol: as §4, §5

[9] = system: MM cell lines; assay: Apoptosis (annexin-V/PI flow cytometry), median over MM cell lines; assay type: cell-based, human; settings: 1.25, 2.5, 5 uM and 10 uM
Protocol: as §4, with “assessed. Bar graphs show % of apoptotic cells (annexin-V+PI positive cells) normalized to basal apoptosis observed in control (DMSO-treated) cells.” for “assessed.”
In contrast, in KMS11 and MM1.S cells, notable apoptosis (54% and 15%, respectively) was seen only at a 10 uM concentration.
as §5, with “For Apoptosis study cells were treated with the indicated agents and concentrations (FIG. 74) for 24 h and stained with annexin-V and propidium iodide (PI), followed by flow cytometry analysis.” left out

[10] = system: MOLT-4; assay: In vitro cell viability bioassay, CellTiter-Glo, MOLT-4; assay type: cell-based, human; settings: for IC50: Homo sapiens, MOLT-4, CellTiter-Glo Luminescent Cell Viability Assay, read-out: Leukemia IC50 (μM) MOLT-4; for pIC50: Table 5, repeats Table 3, read-out: Leukemia MOLT-4 IC50
Protocol: as §2, §3

[11] = system: PC3; assay: In vitro cell viability bioassay, MTT, PC3; assay type: cell-based; settings: Homo sapiens, PC-3; MTT assay; read-out: Prostate Cancer IC50 (μM) PC3
Protocol: as §2, §3

[12] = system: LNCap; assay: In vitro cell viability bioassay, MTT, LNCap; assay type: cell-based; settings: Homo sapiens, MTT assay, read-out: Prostate Cancer IC50 (μM) LNCap
Protocol: as §2, §3

[13] = system: A549; assay: In vitro cell viability bioassay, MTT, A549; assay type: cell-based; settings: Homo sapiens, MTT assay, read-out: Lung Cancer IC50 (μM) A549
Protocol: as §2, §3

Molecule: F[B-]1(F)OC(/C=C/c2ccc(C(F)(F)F)cc2)=CC(/C=C/c2ccc(C(F)(F)F)cc2)=[O+]1
NCI-60 cell screening ([1]; words in the IC50 MDA231 column of Table 4): NCI-60 cell screening modest activity

Molecule: Fc1ccc(/C=C/C2=CC(/C=C/c3ccc(F)cc3)=[O+][B-](F)(F)O2)cc1
pIC50 [2]: 6.00

Molecule: COc1cc(/C=C/C(=O)C(F)(F)C(=O)/C=C/c2ccc(OC)c(OC)c2)ccc1O
pIC50 ([2]; Homo sapiens, MDA-MB-231): 5.66

Molecule: O=C(/C=C/c1ccc(F)cc1)C(F)=C(O)/C=C/c1ccc(F)cc1
pIC50 [2]: 4.92

Molecule: COc1cc(/C=C/C(=O)C(F)=C(O)/C=C/c2ccc(O)c(OC)c2)ccc1O
pIC50 [2]: 5.21

Molecule: 1,7-bis(2,3,6-trimethoxyphenyl)hepta-1,4,6-triene-3,5-dione
cell line growth relative to non-treated cells [3]: ≤ 50%

pIC50 [5]: 5.68
Molecule: F[B-]1(F)OC(/C=C/c2cccc3[nH]ccc23)=CC(/C=C/c2cccc3[nH]ccc23)=[O+]1 [3-BF2, Indole-4-Curcuminoid-BF2 adduct]
apoptosis, healthy donor PBMCs ([4]; […] and 2.5 uM, 24 h): 23-28%
apoptosis, MM1.S ([6]; 2.5 uM, 24 h): 47%
apoptosis, RPMI-8226 [7]: 60%
apoptosis, KMS-11 ([8]; 2.5 uM, 24 h): 79%

Molecule: F[B-]1(F)OC(/C=C/c2csc3ccccc23)=CC(/C=C/c2csc3ccccc23)=[O+]1 [7-BF2, Benzothiophene-3-Curcuminoid-BF2 adduct]
anti-proliferative activity by the NCI-60 in-vitro assay ([1]; 10^−5 molar, Example 5): notable anti-proliferative activity

Molecule: CC1(C)CCC(CN2CCN(c3ccc(C(=O)NS(=O)(=O)c4ccc(NCC5CCOCC5)c([N+](=O)[O-])c4)c(Oc4cnc5[nH]ccc5c4)c3)CC2)=C(c2ccc(Cl)cc2)C1 [Venetoclax, reference compound]
cell death in healthy donor PBMCs ([4]; 1.25, 2.5, 5 uM and 10 uM): ~10%
median apoptosis, MM cell lines [9]: 15%

IC50 [10]: 19 µM
IC50 [11]: 9 µM
IC50 [12]: 9.7 µM
IC50 [13]: 18 µM
Molecule: COc1cc(/C=C/C(=O)CC(=O)/C=C/c2ccc(O)c(OC)c2)ccc1O [compound 1 of FIG. 2, curcumin]
IC50 ([2]; Homo sapiens, MDA-MB-231): 11.5 µM

IC50 [10]: 1.32 µM
IC50 [12]: 29.2 µM
Molecule: O=C(/C=C/c1ccc(F)cc1)C(F)(F)C(=O)/C=C/c1ccc(F)cc1 [compound 12]
IC50 ([2]; Homo sapiens, MDA-MB-231): 6.7 µM

Molecule: O=C(/C=C/c1ccc(SC(F)(F)F)cc1)/C=C(O)\C=C\c1ccc(SC(F)(F)F)cc1 [compound 19 of FIG. 35, (1E,4E,6E)-5-Hydroxy-1,7-bis(4-trifluoromethylthiophenyl)hepta-1,4,6-trien-3-one]
anti-proliferative potency against HCT-116 ([1]; dose mean graph, FIG. 22): high anti-proliferative potency

Molecule: COc1ccc(/C=C/C(=O)C(F)=C(O)/C=C/c2ccc(OC)c(OC)c2)cc1OC [drawing 69]
pIC50 [2]: 7.64

Molecule: COc1ccc(/C=C/C(=O)C=C(O)/C=C/c2ccc(OC)c(OC)c2)cc1OC [drawing 70]
pIC50 [2]: 6.55

Molecule: COc1cc(F)c(/C=C/C2=CC(/C=C/c3cc(OC)c(OC)cc3F)=[O+][B-](F)(F)O2)cc1OC [drawing 72]
pIC50 [2]: 5.77

Molecule: COc1ccc(/C=C/C2=CC(/C=C/c3ccc(OC)c(OC)c3)=[O+][B-](F)(F)O2)cc1OC [drawing 73]
pIC50 [2]: 5.70

Molecule: COc1cc(/C=C/C(=O)C=C(O)/C=C/c2ccc(O)c(OC)c2)ccc1O [drawing 75]
pIC50 [2]: 4.94

Molecule: O=C(/C=C/c1ccc(F)cc1)C(F)(F)C(=O)/C=C/c1ccc(F)cc1 [drawing 77]
pIC50 ([2]; Homo sapiens, MDA-MB-231): 5.17

pIC50 [10]: 4.72
Molecule: COc1cc(/C=C/C(=O)C=C(O)/C=C/c2ccc(O)c(OC)c2)ccc1O [drawing 82]

pIC50 [10]: 7.37
Molecule: COc1ccc(/C=C/C(=O)C=C(O)/C=C/c2ccc(OC)c(OC)c2)cc1OC [drawing 83]

pIC50 [10]: 9.25
Molecule: COc1ccc(/C=C/C2=CC(/C=C/c3ccc(OC)c(OC)c3)=[O+][B-](F)(F)O2)cc1OC [drawing 84]

pIC50 [10]: 7.12
Molecule: COc1ccc(/C=C/C(=O)C(F)=C(O)/C=C/c2ccc(OC)c(OC)c2)cc1OC [drawing 85]

pIC50 [10]: 8.00
Molecule: COc1cc(F)c(/C=C/C2=CC(/C=C/c3cc(OC)c(OC)cc3F)=[O+][B-](F)(F)O2)cc1OC [drawing 86]

Molecule: (1E,4E,6E)-5-Hydroxy-1,7-bis(indole-5)hepta-1,4,6-trien-3-one [compound 2 of Example 5]
apoptosis, MM1.S ([6]; 10 uM): 15%
apoptosis, RPMI-8226 [7]: 65%
apoptosis, KMS11 ([8]; 10 uM): 54%
